Publication PMC3548994 (Biochemistry, 2012)
Non-standard residues stand in square brackets, D forms with d. No end group written: not given here. pT = C[C@@H](OP(=O)(O)O)[C@H](N)C(=O)O

Columns and labels:
[1] = target: Pin1-WW domain (WW50, Pin1 residues 1-50) (Homo sapiens, UniProt Q13526); assay: NMR titration of ^15N-WW50 with phosphate or HEPES; type: binding; conditions: at 10 mM buffer anion and 1 mM WW domain, calculated from KD
[2] = system: Pin1-WW domain binding surface; assay: HSQC NMR of WW53 and mutants versus WW50
[3] = target: Pin1-WW domain construct WW50 (Pin1 residues 1-50) (UniProt Q13526 1-50, 15N-labelled (uniform) in the NMR titrations); assay: NMR titration
[4] = C-terminal mutants of WW53 compared with WW53 and WW50

Molecule | WW domain bound to buffer anion [1] [%] | HSQC peak shifts of key binding surface residues versus WW53 [2, 4] | other results
WW53 E51A/P52A: WW53 construct (Pin1 residues 1-53) with E51A/P52A mutations (MADEEKLPPGWEKRMSRSSGRVYYFNHITNASQWERPSGNSSSGGKNGQGAAA; residues 1-53 (WW domain); UniProt Q13526 1-53, looked up, variant E51A P52A) |  | progressive peak shifts for key binding surface residues | 
WW53 E51A: WW53 construct (Pin1 residues 1-53) with E51A mutation (MADEEKLPPGWEKRMSRSSGRVYYFNHITNASQWERPSGNSSSGGKNGQGAPA; residues 1-53 (WW domain); UniProt Q13526 1-53, looked up, variant E51A) |  | progressive peak shifts for key binding surface residues | HSQC peak shifts of key binding surface residues versus WW53 ([2]; C-terminal mutants of WW53 compared with WW53 and WW50, listed as E51A): progressively shifted some key binding surface peaks toward their WW50 positions
GVVEVDAAV[pT]PEERHLSKMQQNGY (peptide, UniProt P05067-4 659-682, looked up) [phosphopeptide representing APP residues 659-682 phosphorylated at T668 (pAPP659-682)] |  |  | koff [3]: 2040 s⁻¹; kon [3]: 9.1e+07 M⁻¹ s⁻¹

More lines, main results first:

WW domain bound to buffer anion [1] [%] | Molecule | HSQC peak shifts of key binding surface residues versus WW53 [2, 4] | other results
6 | O=S(=O)(O)CCN1CCN(CCO)CC1 [HEPES] |  | 
15 | O=P(O)(O)O [phosphate, sodium phosphate] |  | 
